Reference: publication PMC4428629, “The Structure of an NDR/LATS Kinase–Mob Complex Reveals a Novel Kinase–Coactivator System and Substrate Docking Mechanism” (PLoS Biology, 2015)
Read-outs that look alike come from different tables or passages of the source. Non-standard residues stand in square brackets, D forms with d. Residues, ends and D or L forms follow the SMILES beside them. pT = C[C@@H](OP(=O)(O)O)[C@H](N)C(=O)O

Tests used:
Cbk1^251-756-Mob2 = target: T1, Cbk1^251-756-Mob2 (Saccharomyces cerevisiae, UniProt P43563+P53894); assay: FP direct titration, Cbk1^251-756-Mob2 (WT); assay type: binding
T1 construct: His6-Cbk1^251–756 was co-expressed with GST-Mob2 (full length or 45–287); His6 (N); made in house
T1 sequence (P53894 251-756): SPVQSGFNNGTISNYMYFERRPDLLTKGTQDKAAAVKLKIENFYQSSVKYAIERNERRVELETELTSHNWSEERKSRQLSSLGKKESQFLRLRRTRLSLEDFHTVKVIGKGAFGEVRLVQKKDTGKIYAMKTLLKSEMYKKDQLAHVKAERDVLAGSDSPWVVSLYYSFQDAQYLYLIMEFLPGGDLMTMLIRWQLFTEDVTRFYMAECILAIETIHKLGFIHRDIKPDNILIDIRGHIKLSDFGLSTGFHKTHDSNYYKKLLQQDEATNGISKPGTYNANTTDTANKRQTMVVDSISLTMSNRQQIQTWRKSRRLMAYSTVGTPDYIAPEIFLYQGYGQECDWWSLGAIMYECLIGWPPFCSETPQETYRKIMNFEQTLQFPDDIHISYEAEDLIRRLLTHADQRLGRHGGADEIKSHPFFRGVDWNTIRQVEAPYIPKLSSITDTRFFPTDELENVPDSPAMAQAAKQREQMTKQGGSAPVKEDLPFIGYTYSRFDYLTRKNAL
T1 sequence (P43563 1-287 partner): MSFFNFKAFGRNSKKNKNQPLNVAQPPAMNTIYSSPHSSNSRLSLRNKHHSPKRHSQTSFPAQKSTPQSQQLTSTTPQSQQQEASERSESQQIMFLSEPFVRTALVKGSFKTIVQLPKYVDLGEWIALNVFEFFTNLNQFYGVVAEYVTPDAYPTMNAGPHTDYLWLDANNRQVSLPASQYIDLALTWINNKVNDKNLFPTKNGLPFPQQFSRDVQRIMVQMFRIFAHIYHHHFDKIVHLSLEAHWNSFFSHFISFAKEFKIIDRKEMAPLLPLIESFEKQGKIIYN
Method: (§1) His6-Cbk1^251–756 was co-expressed with GST-Mob2 (full length or 45–287). Cbk1 kinase domain alone (352–756 or 352–692) was expressed as GST-Cbk1-His6. All constructs were bacterially expressed and purified on a Ni-NTA resin (Qiagen) followed by glutathione Sepharose beads (GE Biosciences). For crystallization, tags were cleaved with TEV protease followed by cation exchange chromatography on a Resource S column. All Cbk1 preparations were subsequently dialyzed into Cbk1 buffer (20 mM Tris-HCl, 150 mM NaCl, 2 mM DTT [pH 8.0]).
(§2) For FP-based binding affinity measurements, different docking peptides (pepAce2: GSGSIIVTTNSANGGYQFP; pepSSD1: TTEQSDFKFP; pepHM: IGYTYSRFDY; pepHM-P: IGYpTYSRFDY) were N-terminally (pepAce2 and pepSSD1) or C-terminally (pepHM and pepHM-P) labeled with carboxyfluorescein (CF) fluorescent dyes.
Change in the FP signal in direct binding affinity measurements was monitored as a function of increasing concentration of protein with a Synergy H4 (BioTek Instruments) plate reader in 384-well plates. The labeled peptides were at 20 nM in 20 mM Tris (pH 8.0), 100 mM NaCl, 0.05% Brij35P, 2 mM DTT. The resulting binding isotherms were fit to a quadratic binding equation. The affinity of the unlabeled peptides was measured in steady-state competition experiments: 20 nM labeled reporter was mixed with protein samples in a concentration to achieve ~60%–80% complex formation. Subsequently, increasing amounts of unlabeled peptide were added, and the FP signal was measured as described earlier for direct titration experiments. The Kd for each unlabeled peptide interaction was determined by fitting the data to a competition binding equation. Titration experiments were carried out in triplicate, and the average FP signal was used for fitting the data with OriginPro 7.

Cbk1^251-756(F699A)-Mob2 = target: T2, Cbk1^251-756(F699A)-Mob2 (Saccharomyces cerevisiae, UniProt P43563+P53894, F699A); assay: biochemical; assay type: binding
T2 construct: His6-Cbk1^251–756 was co-expressed with GST-Mob2 (full length or 45–287); His6 (N); made in house
Method: as §1, §2
(§3) Change in the FP signal in direct binding affinity measurements was monitored as a function of increasing concentration of protein with a Synergy H4 (BioTek Instruments) plate reader in 384-well plates. The labeled peptides were at 20 nM in 20 mM Tris (pH 8.0), 100 mM NaCl, 0.05% Brij35P, 2 mM DTT. […] Subsequently, increasing amounts of unlabeled peptide were added, and the FP signal was measured as described earlier for direct titration experiments. The Kd for each unlabeled peptide interaction was determined by fitting the data to a competition binding equation. […]

Cbk1^251-756(F447A)-Mob2 = target: T3, Cbk1^251-756(F447A)-Mob2 (Saccharomyces cerevisiae, UniProt P43563+P53894, F447A); assay: biochemical; assay type: binding
T3 construct: His6-Cbk1^251–756 was co-expressed with GST-Mob2 (full length or 45–287); His6 (N); made in house
Method: as §1, §2, §3

Cbk1^Δ730–756–Mob2 = target: T4, Cbk1^Δ730–756–Mob2 (Saccharomyces cerevisiae, UniProt P43563+P53894); assay: biochemical; assay type: binding
T4 construct: His6-Cbk1^251–756 was co-expressed with GST-Mob2 (full length or 45–287); His6 (N); made in house
Text: ND, not determined. […] (PDF) Click here for additional data file.

Cbk1 = assay: In vitro kinase assay resolved by SDS-PAGE, Ace2/Ssd1 fragments; assay type: biochemical, Saccharomyces cerevisiae; conditions: Cbk1^352–756 kinase domain (S5D)
Method: Kinase assays resolved by SDS-PAGE were conducted with GST-Ace2 or GST-Ssd1 fusions. Reactions contained 1–5 μM substrate, 100–250 nM Cbk1, 5 mM MnCl2, 2 mM DTT, 20 μM ATP, 10 μCi γ-^32P-ATP in Cbk1 buffer. Samples were removed at indicated time points and quenched with SDS-PAGE buffer, followed by SDS-PAGE separation. ^32P was visualized using a Storm phosphorimager (GE Biosciences) and quantified using ImageQuant software.

T3 sequence (P53894 251-756 F447A, one chain of several): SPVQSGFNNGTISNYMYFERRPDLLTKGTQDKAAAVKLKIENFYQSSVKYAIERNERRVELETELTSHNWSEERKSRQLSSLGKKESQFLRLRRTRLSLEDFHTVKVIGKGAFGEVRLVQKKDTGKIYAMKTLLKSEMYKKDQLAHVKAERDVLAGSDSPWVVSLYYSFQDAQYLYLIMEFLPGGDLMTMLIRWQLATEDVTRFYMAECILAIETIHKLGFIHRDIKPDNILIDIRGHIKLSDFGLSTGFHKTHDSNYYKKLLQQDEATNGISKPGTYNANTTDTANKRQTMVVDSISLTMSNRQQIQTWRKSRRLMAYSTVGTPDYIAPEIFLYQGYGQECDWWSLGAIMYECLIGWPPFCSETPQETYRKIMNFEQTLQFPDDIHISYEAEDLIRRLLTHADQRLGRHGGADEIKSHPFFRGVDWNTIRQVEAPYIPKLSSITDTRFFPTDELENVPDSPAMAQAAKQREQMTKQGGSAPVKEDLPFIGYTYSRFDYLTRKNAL
T2 sequence (P53894 251-756 F699A, one chain of several): as the sequence (P53894 251-756 F447A, one chain of several) above, with A197F, F449A counted along it

`CC[C@H](C)[C@H](NC(=O)[C@H](CO)NC(=O)CNC(=O)[C@H](CO)NC(=O)CN)C(=O)N[C@H](C(=O)N[C@H](C(=O)N[C@H](C(=O)N[C@H](C(=O)N[C@@H](CC(N)=O)C(=O)N[C@@H](CO)C(=O)N[C@@H](C)C(=O)N[C@@H](CC(N)=O)C(=O)NCC(=O)NCC(=O)N[C@@H](Cc1ccc(O)cc1)C(=O)N[C@@H](CCC(N)=O)C(=O)N[C@@H](Cc1ccccc1)C(=O)N1CCC[C@H]1C(=O)O)[C@@H](C)O)[C@@H](C)O)C(C)C)[C@@H](C)CC` [pepAce2] (H-GSGSIIVTTNSANGGYQFP-OH) was tested, and the Kd (Cbk1^251-756-Mob2; CF-labeled peptide 20 nM, Tris pH 8.0, triplicate, read-out: peptide binding affinity (table in Fig 5C)) was 5 µM, the Kd (Cbk1^251-756-Mob2; labeled synthetic peptides, Cbk1–Mob2 (S5H Fig), read-out: Kd) was ~6 µM and the Kd (Cbk1^251-756(F699A)-Mob2) was 5 µM.

`CC[C@H](C)[C@H](N)C(=O)NCC(=O)N[C@@H](Cc1ccc(O)cc1)C(=O)N[C@H](C(=O)N[C@@H](Cc1ccc(O)cc1)C(=O)N[C@@H](CO)C(=O)N[C@@H](CCCNC(=N)N)C(=O)N[C@@H](Cc1ccccc1)C(=O)N[C@@H](CC(=O)O)C(=O)N[C@@H](Cc1ccc(O)cc1)C(=O)O)[C@@H](C)OP(=O)(O)O` [pepHM-P] (H-IGY[pT]YSRFDY-OH) gave a Kd (Cbk1^251-756(F447A)-Mob2) of 33 µM and a Kd (Cbk1^Δ730–756–Mob2) of ~6 µM.

B1: Ace2^102–306: Ace2 fragment, kinase substrate containing docking motif (protein, UniProt P21192 102-306, looked up, fragment)
chain: ENNKVSHYSKKSMSSHKRGLSGTAIFGFLGHNKTLSISSLQQSILNMSKDPQPMELINELGNHNTVKNNNDDFDHIRENDGENSYLSQVLLKQQEELRIALEKQKEVNEKLEKQLRDNQIQQEKLRKVLEEQEEVAQKLVSGATNSNSKPGSPVILKTPAMQNGRMKDNAIIVTTNSANGGYQFPPPTLISPRMSNTSINGSPSR
For B1, the “enhancement of phosphorylation by docking motif” value (Cbk1) was 100 fold.
